Laboratory results taken from BindingDB's records for doi:10.1016/0960-894X(95)00040-Z (1995).

Test: Compound was tested for inhibitory activity against prostaglandin synthetase in mouse brain microsomes

C1=C(CCN2CCOCC2)c2ccccc2/C1=C/c1ccccc1 [4-(2-{3-[1-Phenyl-meth-(E)-ylidene]-3H-inden-1-yl}-ethyl)-morpholine]
IC50: 20 µM
